Measurements reported in US4206215A, “Antimicrobial bis-[4-(substituted-amino)-1-pyridinium]alkanes” (Sterling Drug Inc., priority 1977, dated 1980).
Like-named read-outs stand apart in the source and are kept apart here.

Key:
[1] = system: C. albicans 10231; experiment: In vitro antifungal activity, MIC (modified Autotiter method); format: cell-based, Candida albicans; settings: Candida albicans, 10231, 20 h, 18-20 hours at 37° C.; read-out: MIC C. albicans 10231
Outline: (§1)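 Compounds are diluted serially by twofold steps in sterile water using the Autotiter, beginning with a 1,000 mcg./ml. solution; addition of inoculated double-strength semisynthetic medium with glucose yields final concentrations between 500 and 0.06 mcg./ml.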

[2] = system: C. albicans Wisc.; experiment: as above; format: cell-based, Candida albicans; settings: 18-20 hours at 37° C.; for MIC: Candida albicans, 20 h, read-out: MIC C. albicans Wisc.
Outline: as §1

[3] = system: S. Aureus ATCC 6538; experiment: Effect of serum on bacteriostatic activity (serial tube dilution test); format: cell-based, Staphyloccocus aureus; settings: for Fold Increase in MIC S. Aureus ATCC 6538: 40% vs 0% horse serum; for MIC: Staphylococcus aureus, ATCC6538
[4] = system: Streptococcus mutans OMZ-61; experiment: Dental plaque-preventive effectiveness in the presence of sterile human saliva (50%); format: cell-based; settings: for Dental Plaque Preventive Activity in 50% saliva Minimum Effective Conc. (%): 50% sterile human saliva
Protocol: The dental plaque preventive activity of certain of the compounds of the present invention was determined by measuring the ability of these compounds to inhibit the production of dental plaque by Streptococcus mutans OMZ-61 as follows:
A culture medium for the plaque-producing Streptococcus mutans OMZ-61 containing 1.5 g. of BBL beef extract, 5 g. of sodium chloride, 10 g. of dehydrated trypticase, 5 g. of sucrose and sufficient distilled water to give a total volume of 1000 ml. is adjusted to pH 7.0 and sterilized by membrane filtration. The medium is dispensed aseptically in 10-ml. aliquots into 150×16 mm. test tubes and stored at refrigeration temperature until used.
Two concentrations of the compound to be tested are prepared by dissolving 100 mg. of the compound in 1 ml. of distilled water with the aid of sufficient 0.1 N sodium hydroxide, 10% dimethylsulfoxide or 10% N,N-dimethylformamide and diluting the resulting solution to 10 ml. with distilled water. This 1.0% solution and a 1:10 dilution in distilled water (0.1%) are sterilized by membrane filtration before use.
A sterile piece of plaque-free natural tooth enamel or synthetic hydroxylapatite is suspended in each concentration of compound for two 1-minute periods, each followed by a 1-minute air drying period. Each piece is then suspended and agitated for 5 minutes in individual test tubes containing sterile distilled water (rinse). They are then suspended in 10 ml. of liquid beef extract medium to which has been added 0.3 ml. of a 24-hr. anaerobic culture of Streptococcus mutans. The tubes containing the "treated" hydroxylapatite and the Streptococcus mutans are then incubated anaerobically at 37° C. for 24 hours. The same process of two 1-minute soaks in the solution of compound, each followed by 1 minute of air drying and the final 5-minute rinse is repeated before once again suspending the hydroxylapatite in a fresh tube containing 10 ml. of beef extract medium and 0.3 ml. of inoculum. At the end of the second 24-hour period, each piece of hydroxylapatite is rinsed for 1 minute in 3 successive tubes of distilled water. These are then suspended for 1 minute in a solution of F, D & C Red No. 3 dye. This staining procedure is used in order to identify more easily the development of plaque after the 48-hour period of exposure to the plaque-producing organism. The staining period is followed by another 10-second rinse to remove excess dye. Any plaque formation stains a brilliant pink. […] Active compounds are tested at successively lower doses in order to determine the minimum effective concentration. On some occasions, the interference of plaque production is caused by the inhibition of growth of the organism in the culture medium because the compound has been leached from the hydroxylapatite to produce an antibacterial level in the medium. When this occurs, the compound is tested at lower concentrations until the growth of the organism in the surrounding medium is equal to that in the nonmedicated control culture. Plaque may or may not be formed at these lower concentrations.
Dental plaque-preventive effectiveness in the presence of sterile human saliva (50%) was determined for representative examples.

[5] = Acute oral toxicity (ALD50); format: in vivo; settings: mouse, in vivo, po, mice, read-out: 7-Day ALD50
Protocol: (§2) The acute oral toxicity (ALD50) of several representative examples was determined as follows: Groups of 3 young adult male Swiss-Webster strain albino mice were fasted approximately 4 hours before medication and then medicated once orally by stomach tube.

[6] = system: young adult male Swiss-Webster strain albino mice; experiment: Acute oral toxicity (ALD50); format: in vivo
Protocol: as §2

[7] = 40% heat inactivated horse serum, read-out: MIC S. Aureus ATCC 6538 40% Serum
[8] = read-out: MIC S. Aureus ATCC 6538 0% Serum
[9] = suspension in 1% gum tragacanth
[10] = 125 mg/kg oral, aqueous solution
[11] = 125 mg/kg oral, suspension in 1% G.T.
[12] = 250 mg/kg oral, aqueous solution
[13] = 250 mg/kg oral, suspension in 1% G.T.
[14] = 500 mg/kg oral, aqueous solution
[15] = 500 mg/kg oral, suspension in 1% G.T.
[16] = 1000 mg/kg oral, suspension in 1% G.T.

## CCCCCCCNc1cc[n+](CCCCCCCCCCCC[n+]2ccc(NCCCCCCC)cc2)cc1 [Example 3, 1,12-bis-[4-(heptylamino)-1-pyridinium]dodecane dibromide]
[1]
  MIC: 1.56 µg/mL
[2]
  MIC: 3.13 µg/mL
[3]
  Fold Increase in MIC S. Aureus ATCC 6538: 8 fold
[3]; [7]
  MIC: 3.12 µg/mL
[3]; [8]
  MIC: 0.39 µg/mL
[4]
  Dental Plaque Preventive Activity in 50% saliva Minimum Effective Conc. (%): 0.1%
[5]; aqueous solution
  LD50 at 168 h: 315 mg/kg
[5]; [9]
  LD50 at 168 h: 1000 mg/kg
[6]; [10]
  Mortality 7 Days: 0/3
  Mortality 24 Hrs: 0/3
[6]; [11]
  Mortality 7 Days: 0/3
  Mortality 24 Hrs: 0/3
[6]; [12]
  Mortality 7 Days: 1/3
  Mortality 24 Hrs: 1/3
[6]; [13]
  Mortality 7 Days: 0/3
  Mortality 24 Hrs: 0/3
[6]; [14]
  Mortality 7 Days: 3/3
  Mortality 24 Hrs: 2/3
[6]; [15]
  Mortality 7 Days: 1/3
  Mortality 24 Hrs: 0/3
[6]; [16]
  Mortality 7 Days: 1/3
  Mortality 24 Hrs: 1/3

## CCCCCCNc1cc[n+](CCCCCCCCCCCCCC[n+]2ccc(NCCCCCC)cc2)cc1 [Example 5C, 1,14-bis-[4-(hexylamino)-1-pyridinium]tetradecane dibromide]
[1]
  MIC: 1.5 µg/mL
[2]; listed as SC
  MIC C. albicans Wisc.: 0.76 µg/mL
[3]
  Fold Increase in MIC S. Aureus ATCC 6538: 32 fold
[3]; [7]
  MIC: 3.12 µg/mL
[3]; [8]
  MIC: 0.1 µg/mL
[4]; 0.005%, 50% saliva
  Plaque formation in 50% saliva plaque test (footnote 1): plaque formed
[4]; 0.05% concentration, 50% saliva
  Bacterial growth in 50% saliva plaque test (footnote 1): No bacterial growth
[4]
  Dental Plaque Preventive Activity in 50% saliva Minimum Effective Conc. (%): 0.05%
[5]; [9]
  LD50 at 168 h: > 1000 mg/kg
[6]; [11]
  Mortality 7 Days: 0/3
  Mortality 24 Hrs: 0/3
[6]; [13]
  Mortality 7 Days: 0/3
  Mortality 24 Hrs: 0/3
[6]; [15]
  Mortality 7 Days: 0/3
  Mortality 24 Hrs: 0/3
[6]; [16]
  Mortality 7 Days: 1/3
  Mortality 24 Hrs: 1/3

## CCCCCCCCNc1cc[n+](CCCCCCCC[n+]2ccc(NCCCCCCCC)cc2)cc1 [Example 11, 1,8-bis-[4-(octylamino)-1-pyridinium]octane dibromide]
[1]
  MIC: 1 µg/mL
[2]
  MIC: 1 µg/mL
[3]
  Fold Increase in MIC S. Aureus ATCC 6538: 16 fold
[3]; [7]
  MIC: 7.8 µg/mL
[3]; [8]
  MIC: 0.5 µg/mL
[4]
  Dental Plaque Preventive Activity in 50% saliva Minimum Effective Conc. (%): 0.05%
[5]; [9]
  LD50 at 168 h: > 1000 mg/kg
[6]; [11]
  Mortality 7 Days: 0/3
  Mortality 24 Hrs: 0/3
[6]; [13]
  Mortality 7 Days: 0/3
  Mortality 24 Hrs: 0/3
[6]; [15]
  Mortality 7 Days: 1/3
  Mortality 24 Hrs: 0/3
[6]; [16]
  Mortality 7 Days: 0/3
  Mortality 24 Hrs: 0/3

## CCCCCCCNc1cc[n+](CCCCCCCCC[n+]2ccc(NCCCCCCC)cc2)cc1 [Example 24, 1,9-bis-[4-(heptylamino)-1-pyridinium]nonane dibromide]
[1]
  MIC: 1 µg/mL
[2]
  MIC: 1 µg/mL
[3]
  Fold Increase in MIC S. Aureus ATCC 6538: 16 fold
[3]; [7]
  MIC: 1.95 µg/mL
[3]; [8]
  MIC: 0.125 µg/mL
[4]
  Dental Plaque Preventive Activity in 50% saliva Minimum Effective Conc. (%): Ca. 0.005%
[5]; [9]
  LD50 at 168 h: > 1000 mg/kg
[6]; [11]
  Mortality 7 Days: 0/3
  Mortality 24 Hrs: 0/3
[6]; [13]
  Mortality 7 Days: 0/3
  Mortality 24 Hrs: 0/3
[6]; [15]
  Mortality 7 Days: 1/3
  Mortality 24 Hrs: 0/3
[6]; [16]
  Mortality 7 Days: 0/3
  Mortality 24 Hrs: 0/3

## CCCCC(CC)CNc1cc[n+](CCCCCCCCCC[n+]2ccc(NCC(CC)CCCC)cc2)cc1 (stereo not drawn) [Example 58, 1,10-bis-[4-(2-ethylhexylamino)-1-pyridinium]decane dibromide]
[1]
  MIC: 3 µg/mL
[2]
  MIC: 1.5 µg/mL
[3]
  Fold Increase in MIC S. Aureus ATCC 6538: 16 fold
[3]; [7]
  MIC: 3.9 µg/mL
[3]; [8]
  MIC: 0.25 µg/mL
[4]
  Dental Plaque Preventive Activity in 50% saliva Minimum Effective Conc. (%): Ca. 0.005%
[5]; [9]
  LD50 at 168 h: > 1000 mg/kg
[6]; [11]
  Mortality 7 Days: 0/3
  Mortality 24 Hrs: 0/3
[6]; [13]
  Mortality 7 Days: 0/3
  Mortality 24 Hrs: 0/3
[6]; [15]
  Mortality 7 Days: 0/3
  Mortality 24 Hrs: 0/3
[6]; [16]
  Mortality 7 Days: 0/3
  Mortality 24 Hrs: 0/3
